The record followed here is patent publication US20240270809A1, “ORAL GLP RECEPTOR AGONISTS” (priority 2020, published 2024).

Assay [1] addresses T1, human GLP1 receptor (Homo sapiens, UniProt P43220).
T1 construct: expressed in transfected cells; host or cells: HEK cells, BacMam virus transduction
Put plainly: cAMP accumulation assay, functional agonism of human GLP1 receptor. Conditions: HEK cells infected with human GLP1 receptor BacMam virus, HTRF cAMP; for Emax: HEK293, read-out: Human GLP-1R agonist cAMP Emax; for EC50: read-out: Human GLP-1R agonist cAMP pEC50 (converted). It is filed as cell-based. Summed up: (§1)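 Frozen HEK cells, previously BacMam-infected 24 h to express either receptor, are stimulated for 45 min at 37° C in IBMX-containing (0.5 mM) HBSS. The reaction is then terminated with HTRF reagents in lysis buffer.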

For assay [2], the target named is T2, human GLP2 receptor (Homo sapiens, UniProt O95838).
T2 construct: expressed in transfected cells; host or cells: HEK cells, BacMam virus transduction
T2 sequence (O95838 1-553): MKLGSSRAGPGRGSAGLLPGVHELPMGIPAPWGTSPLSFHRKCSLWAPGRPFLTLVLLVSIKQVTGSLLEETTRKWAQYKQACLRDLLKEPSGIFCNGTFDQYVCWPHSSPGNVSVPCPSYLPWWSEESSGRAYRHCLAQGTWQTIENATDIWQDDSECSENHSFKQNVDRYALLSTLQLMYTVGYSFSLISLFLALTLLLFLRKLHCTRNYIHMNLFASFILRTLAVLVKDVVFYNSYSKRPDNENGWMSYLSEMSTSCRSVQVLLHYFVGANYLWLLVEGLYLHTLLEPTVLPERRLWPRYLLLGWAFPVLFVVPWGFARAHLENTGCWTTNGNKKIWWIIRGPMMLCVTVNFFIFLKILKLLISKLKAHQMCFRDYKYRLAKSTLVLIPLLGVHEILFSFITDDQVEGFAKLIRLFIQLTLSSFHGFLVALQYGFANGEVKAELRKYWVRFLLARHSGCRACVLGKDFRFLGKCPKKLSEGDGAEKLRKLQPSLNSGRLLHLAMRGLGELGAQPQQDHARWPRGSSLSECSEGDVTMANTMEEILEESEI
The assay can be described thus: cAMP accumulation assay, functional agonism of human GLP2 receptor. It is filed as cell-based. Conditions: HEK cells infected with human GLP2 receptor BacMam virus, HTRF cAMP; for Emax: HEK293, read-out: Human GLP-2R agonist cAMP Emax; for EC50: read-out: Human GLP-2R agonist cAMP pEC50 (converted). The essentials:
as §1

Positions of bridges follow the written chain, without caps; N, C: chain ends. Non-standard residues stand in square brackets, D forms with d. Residues, ends and D or L forms follow the SMILES beside them. *: point of attachment. Malonyl(2,2-Me2,histaminyl) = CC(C)(C(=O)NCCc1cnc[nH]1)C(=O)*; Ala(1H-tetrazol-5-yl) = N[C@@H](Cc1nnn[nH]1)C(=O)O; Nle = CCCC[C@H](N)C(=O)O; Aib = CC(C)(N)C(=O)O

T1 sequence (P43220 24-463): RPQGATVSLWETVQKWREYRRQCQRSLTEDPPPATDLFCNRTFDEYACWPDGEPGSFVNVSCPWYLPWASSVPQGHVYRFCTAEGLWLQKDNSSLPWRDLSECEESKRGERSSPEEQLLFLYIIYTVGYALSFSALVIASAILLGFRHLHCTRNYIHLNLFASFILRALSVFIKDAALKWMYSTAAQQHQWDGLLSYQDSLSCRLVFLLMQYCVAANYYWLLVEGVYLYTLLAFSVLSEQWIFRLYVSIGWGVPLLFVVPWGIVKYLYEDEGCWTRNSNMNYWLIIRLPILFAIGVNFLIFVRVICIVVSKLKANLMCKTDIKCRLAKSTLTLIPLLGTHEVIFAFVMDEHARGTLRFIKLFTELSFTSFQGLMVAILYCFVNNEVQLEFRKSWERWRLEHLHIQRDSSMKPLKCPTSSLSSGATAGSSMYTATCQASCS

With `CCCC[C@H](NC(=O)[C@H](CCC(=O)O)NC(=O)[C@@H]1CCCCNC(=O)CC[C@H](NC(=O)[C@H](CC(=O)O)NC(=O)C(C)(C)NC(=O)[C@@H](N)Cc2c[nH]cn2)C(=O)N[C@@H](CO)C(=O)N[C@@H](Cc2ccccc2)C(=O)N[C@@H](CO)C(=O)N1)C(=O)N[C@H](Cc1ccccc1)C(=O)N[C@H](C(=O)N[C@H](C(=O)N[C@@H](CC(C)C)C(=O)N[C@@H](CC(=O)O)C(=O)N[C@@H](CC(C)C)C(=O)N[C@@H](CCCCN)C(=O)N[C@@H](C)C(=O)N[C@@H](C)C(=O)N[C@@H](CCCCN)C(=O)N[C@@H](CC(=O)O)C(=O)N[C@@H](Cc1ccccc1)C(=O)N[C@H](C(=O)N[C@@H](CC(N)=O)C(=O)N[C@@H](Cc1c[nH]c2ccccc12)C(=O)N[C@@H](CC(C)C)C(=O)N[C@H](C(=O)N[C@@H](CCC(N)=O)C(=O)N[C@H](C(=O)N[C@H]1CCC(=O)NCCCC[C@@H](C(N)=O)NC(=O)[C@H]([C@@H](C)O)NC(=O)[C@H]([C@@H](C)CC)NC1=O)[C@@H](C)O)[C@@H](C)CC)[C@@H](C)CC)[C@@H](C)CC)[C@@H](C)O` [Example 104] (H-H[Aib]DESFSKE[Nle][dF]TILDLKAAKDFINWLIQTEITK-NH2; lactam 4-8, 30-33 (inferred); C-terminus assumed), in assay [1], the Emax was found to be 88.3% and the EC50 is 3.98 nM. In assay [2], the Emax was 102% and the EC50 was 0.501 nM.
Taken in the same sequence, the figures for `CCCC[C@@H]1NC(=O)[C@H](CCC(=O)O)NC(=O)[C@@H](NC(=O)[C@H](CO)NC(=O)[C@H](Cc2ccccc2)NC(=O)[C@H](CO)NC(=O)CNC(=O)[C@H](Cc2nn[nH]n2)NC(=O)C(C)(C)C(=O)NCCc2c[nH]cn2)CCCCNC(=O)C[C@@H](C(=O)N[C@H](C(=O)N[C@@H](CC(C)C)C(=O)N[C@@H](CC(=O)O)C(=O)N[C@@H](CC(C)C)C(=O)N[C@@H](CCCCN)C(=O)N[C@@H](C)C(=O)N[C@@H](C)C(=O)NC(C)(C)C(=O)N[C@@H](CC(=O)O)C(=O)N[C@@H](Cc2ccccc2)C(=O)N[C@H](C(=O)N[C@@H](CC(N)=O)C(=O)N[C@@H](Cc2c[nH]c3ccccc23)C(=O)N[C@@H](CC(C)C)C(=O)N[C@H](C(=O)N[C@@H](CCC(N)=O)C(=O)N[C@H](C(=O)N[C@H]2CCC(=O)NCCCC[C@@H](C(N)=O)NC(=O)[C@H]([C@@H](C)O)NC(=O)[C@H]([C@@H](C)CC)NC2=O)[C@@H](C)O)[C@@H](C)CC)[C@@H](C)CC)[C@@H](C)CC)NC(=O)[C@@H](Cc2ccccc2)NC1=O` [Example 108] ({Malonyl(2,2-Me2,histaminyl)}-[Ala(1H-tetrazol-5-yl)]GSFSKE[Nle][dF]DILDLKAA[Aib]DFINWLIQTEITK-NH2; lactam 6-10, 28-31; C-terminus assumed) were 92.1%, 3.98 nM, 104% and 0.501 nM.
Taken in the same sequence, the figures for `CCCC[C@@H]1NC(=O)[C@H](CCC(=O)O)NC(=O)[C@@H](NC(=O)[C@H](CO)NC(=O)[C@H](Cc2ccccc2)NC(=O)[C@H](CO)NC(=O)CNC(=O)[C@H](Cc2nn[nH]n2)NC(=O)C(C)(C)C(=O)NCCc2c[nH]cn2)CCCCNC(=O)C[C@@H](C(=O)N[C@H](C(=O)N[C@@H](CC(C)C)C(=O)N[C@@H](CC(=O)O)C(=O)N[C@H]2CC(=O)NCCCC[C@@H](C(=O)N[C@@H](CC(=O)O)C(=O)N[C@@H](Cc3ccccc3)C(=O)N[C@H](C(=O)N[C@@H](CC(N)=O)C(=O)N[C@@H](Cc3c[nH]c4ccccc34)C(=O)N[C@@H](CC(C)C)C(=O)N[C@H](C(=O)N[C@@H](CCC(N)=O)C(=O)N[C@H](C(=O)N[C@@H](CCCCN)C(=O)N[C@H](C(=O)N[C@H](C(=O)N[C@@H](Cc3ccccc3)C(N)=O)[C@@H](C)O)[C@@H](C)CC)[C@@H](C)O)[C@@H](C)CC)[C@@H](C)CC)NC(=O)[C@H](C)NC(=O)[C@H](C)NC(=O)[C@H](CCCCN)NC2=O)[C@@H](C)CC)NC(=O)[C@@H](Cc2ccccc2)NC1=O` [Example 114] ({Malonyl(2,2-Me2,histaminyl)}-[Ala(1H-tetrazol-5-yl)]GSFSKE[Nle][dF]DILDDKAAKDFINWLIQTKITF-NH2; lactam 6-10, 14-18 (inferred); C-terminus assumed) were 89.1%, 3.16 nM, 102% and 0.02 nM.
In the case of `CCCC[C@@H]1NC(=O)[C@H](CCC(=O)O)NC(=O)[C@@H](NC(=O)[C@H](CO)NC(=O)[C@H](Cc2ccccc2)NC(=O)[C@H](CO)NC(=O)CNC(=O)[C@H](Cc2nn[nH]n2)NC(=O)C(C)(C)C(=O)NCCc2c[nH]cn2)CCCCNC(=O)C[C@@H](C(=O)N[C@H](C(=O)N[C@@H](CC(C)C)C(=O)N[C@@H](CC(=O)O)C(=O)N[C@H]2CCC(=O)NCCCC[C@@H](C(=O)N[C@@H](CC(=O)O)C(=O)N[C@@H](Cc3ccccc3)C(=O)N[C@H](C(=O)N[C@@H](CC(N)=O)C(=O)N[C@@H](Cc3c[nH]c4ccccc34)C(=O)N[C@@H](CC(C)C)C(=O)N[C@H](C(=O)N[C@@H](CCC(N)=O)C(=O)N[C@H](C(=O)N[C@@H](CCCCN)C(=O)N[C@H](C(=O)N[C@H](C(=O)N[C@@H](Cc3ccccc3)C(N)=O)[C@@H](C)O)[C@@H](C)CC)[C@@H](C)O)[C@@H](C)CC)[C@@H](C)CC)NC(=O)[C@H](C)NC(=O)[C@H](C)NC(=O)[C@H](CCCCN)NC2=O)[C@@H](C)CC)NC(=O)[C@@H](Cc2ccccc2)NC1=O` [Example 115] ({Malonyl(2,2-Me2,histaminyl)}-[Ala(1H-tetrazol-5-yl)]GSFSKE[Nle][dF]DILDEKAAKDFINWLIQTKITF-NH2; lactam 6-10, 14-18 (inferred); C-terminus assumed), the Emax in assay [1] turned out to be 92%; in assay [2], 104%. The EC50 was 0.501 nM in assay [1] and 0.02 nM in assay [2].

A word on the Emax: it is the maximal effect, on the per cent scale that the assay sets.
